Data published in BigSolDB 2.1.

CC(=O)c1ccc2ccc(C)cc2c1
solubility (mole fraction)
Settings | in n-dodecane | in n-heptane | in n-octane
273.15 K | 0.00013 | 0.000115 | 0.000114
275.15 K | 0.000135 | 0.000124 | –
276.15 K | – | – | 0.00013
277.15 K | – | 0.000138 | –
278.15 K | 0.000158 | – | –
279.15 K | – | 0.000157 | 0.000152
281.15 K | 0.000195 | – | 0.000172
282.15 K | – | 0.000182 | –
283.15 K | 0.000205 | – | –
284.15 K | – | – | 0.000194
286.15 K | 0.000239 | 0.000228 | –
287.15 K | – | – | 0.000231
289.15 K | 0.000287 | 0.000268 | 0.000254
291.15 K | – | 0.000297 | –
292.15 K | 0.000339 | – | 0.000291
293.15 K | – | 0.000344 | –
295.15 K | 0.00041 | – | 0.000343
297.15 K | 0.000454 | – | 0.000387
300.15 K | 0.000526 | – | –

CC(=O)c1ccc2cc(C)ccc2c1
Settings | solubility (mole fraction)
in n-dodecane, 273.15 K | 0.00876
in n-dodecane, 279.65 K | 0.0122
in n-dodecane, 283.15 K | 0.0146
in n-dodecane, 288.15 K | 0.0188
in n-dodecane, 291.15 K | 0.022
in n-dodecane, 293.65 K | 0.0254
in n-dodecane, 296.65 K | 0.0291
in n-dodecane, 299.15 K | 0.0339
in n-dodecane, 301.65 K | 0.037
in n-dodecane, 305.15 K | 0.046
in n-dodecane, 308.15 K | 0.0535
in n-dodecane, 311.15 K | 0.0683
in n-heptane, 273.15 K | 0.00938
in n-heptane, 277.15 K | 0.0104
in n-heptane, 279.15 K | 0.0114
in n-heptane, 282.15 K | 0.013
in n-heptane, 285.15 K | 0.0151
in n-heptane, 288.15 K | 0.0177
in n-heptane, 291.15 K | 0.0217
in n-heptane, 294.15 K | 0.0258
in n-heptane, 297.15 K | 0.0293
in n-heptane, 299.65 K | 0.0345
in n-heptane, 303.15 K | 0.0428
in n-heptane, 306.15 K | 0.0484
in n-heptane, 309.15 K | 0.0566
in n-heptane, 311.15 K | 0.0629
in n-heptane, 313.15 K | 0.0716
in n-heptane, 316.15 K | 0.0852
in n-heptane, 319.15 K | 0.105
in n-octane, 273.15 K | 0.00895
in n-octane, 277.65 K | 0.0105
in n-octane, 283.15 K | 0.0139
in n-octane, 287.15 K | 0.0172
in n-octane, 291.15 K | 0.0211
in n-octane, 293.15 K | 0.0239
in n-octane, 297.15 K | 0.029
in n-octane, 301.15 K | 0.0371
in n-octane, 303.15 K | 0.0417
in n-octane, 306.65 K | 0.0487
in n-octane, 311.15 K | 0.0623
in n-octane, 314.15 K | 0.0755
in n-octane, 316.15 K | 0.0861
in n-octane, 319.15 K | 0.106
